Active and inactive are the calls of the source. The calls are words filed in the database; no cut-off is given here.
What was measured:
[1] = molecular target: T1, Taste receptor type 2 member 16 (Homo sapiens) (UniProt Q9NYV7); assay: (§1) Activation of full-length human TAS2R16 expressed in HEK293T/Galpha16-gustducin 44 cells assessed as effect on calcium flux by measuring deltaF/F0 ratio at 2.5 mM in presence of (E)-4-(2,2,3-trimethylcyclopent-3-enyl)but-2-enoic acid by Fluo-4 dye based FLIPR assay; format: functional, cell-based
T1 sequence (whole entry): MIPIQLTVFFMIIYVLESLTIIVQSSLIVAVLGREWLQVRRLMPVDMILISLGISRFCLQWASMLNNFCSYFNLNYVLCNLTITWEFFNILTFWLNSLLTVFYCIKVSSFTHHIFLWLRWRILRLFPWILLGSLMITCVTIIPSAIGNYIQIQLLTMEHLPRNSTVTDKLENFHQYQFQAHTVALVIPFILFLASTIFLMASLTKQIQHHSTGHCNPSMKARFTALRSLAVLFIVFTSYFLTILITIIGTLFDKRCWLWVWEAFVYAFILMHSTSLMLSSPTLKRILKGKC

[2] = molecular target: T1, Taste receptor type 2 member 16 (Homo sapiens); assay: Activation of full-length human TAS2R16 expressed in HEK293T/Galpha16-gustducin 44 cells assessed as effect on calcium flux by measuring deltaF/F0 ratio at 5 mM in presence of (E)-4-(2,2,3-trimethylcyclopent-3-enyl)but-2-enoic acid by Fluo-4 dye based FLIPR assay; format: functional, cell-based
[3] = molecular target: T1, Taste receptor type 2 member 16 (Homo sapiens); assay: Activation of full-length human TAS2R16 expressed in HEK293T/Galpha16-gustducin 44 cells assessed as effect on calcium flux by measuring deltaF/F0 ratio at 0.0781 mM in presence of (E)-4-(2,2,3-trimethylcyclopent-3-enyl)but-2-enoic acid by Fluo-4 dye based FLIPR assay; format: functional, cell-based
[4] = molecular target: T1, Taste receptor type 2 member 16 (Homo sapiens); assay: Activation of full-length human TAS2R16 expressed in HEK293T/Galpha16-gustducin 44 cells assessed as effect on calcium flux by measuring deltaF/F0 ratio at 0.625 mM in presence of (E)-4-(2,2,3-trimethylcyclopent-3-enyl)but-2-enoic acid by Fluo-4 dye based FLIPR assay; format: functional, cell-based
[5] = molecular target: T1, Taste receptor type 2 member 16 (Homo sapiens); assay: Activation of full-length human TAS2R16 expressed in HEK293T/Galpha16-gustducin 44 cells assessed as effect on calcium flux by measuring deltaF/F0 ratio at 10 mM in presence of (E)-4-(2,2,3-trimethylcyclopent-3-enyl)but-2-enoic acid by Fluo-4 dye based FLIPR assay; format: functional, cell-based
[6] = molecular target: T1, Taste receptor type 2 member 16 (Homo sapiens); assay: Activation of full-length human TAS2R16 expressed in HEK293T/Galpha16-gustducin 44 cells assessed as effect on calcium flux by measuring deltaF/F0 ratio at 0.3125 mM in presence of (E)-4-(2,2,3-trimethylcyclopent-3-enyl)but-2-enoic acid by Fluo-4 dye based FLIPR assay; format: functional, cell-based
[7] = molecular target: T1, Taste receptor type 2 member 16 (Homo sapiens); assay: Activation of full-length human TAS2R16 expressed in HEK293T/Galpha16-gustducin 44 cells assessed as effect on calcium flux by measuring deltaF/F0 ratio in presence of 4-(2,2,3-trimethylcyclo-pentyl)butanamide) by Fluo-4 dye based FLIPR assay; format: functional, cell-based
[8] = molecular target: T1, Taste receptor type 2 member 16 (Homo sapiens); assay: Activation of full-length human TAS2R16 expressed in HEK293T/Galpha16-gustducin 44 cells assessed as effect on calcium flux by measuring deltaF/F0 ratio at 0.1563 mM in presence of (E)-4-(2,2,3-trimethylcyclopent-3-enyl)but-2-enoic acid by Fluo-4 dye based FLIPR assay; format: functional, cell-based
[9] = molecular target: T1, Taste receptor type 2 member 16 (Homo sapiens); assay: Activation of full-length human TAS2R16 expressed in HEK293T/Galpha16-gustducin 44 cells assessed as effect on calcium flux by measuring deltaF/F0 ratio at 0.0391 mM in presence of (E)-4-(2,2,3-trimethylcyclopent-3-enyl)but-2-enoic acid by Fluo-4 dye based FLIPR assay; format: functional, cell-based
[10] = molecular target: T2, Taste receptor type 2 member 1 (Homo sapiens) (UniProt Q9NYW7); assay: Activation of full-length human TAS2R1 expressed in HEK293T/Galpha16-gustducin 44 cells assessed as effect on calcium flux by measuring deltaF/F0 ratio by Fluo-4 dye based FLIPR assay; format: functional, cell-based
T2 sequence (whole entry): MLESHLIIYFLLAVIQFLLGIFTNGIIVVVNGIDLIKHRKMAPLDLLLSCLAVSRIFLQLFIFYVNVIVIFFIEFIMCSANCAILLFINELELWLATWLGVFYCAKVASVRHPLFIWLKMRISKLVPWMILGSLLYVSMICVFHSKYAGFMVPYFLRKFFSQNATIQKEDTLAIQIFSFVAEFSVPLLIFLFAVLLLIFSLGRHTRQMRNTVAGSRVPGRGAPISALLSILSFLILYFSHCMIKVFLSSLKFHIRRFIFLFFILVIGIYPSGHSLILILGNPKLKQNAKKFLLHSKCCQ

[11] = molecular target: T3, Taste receptor type 2 member 31 (Homo sapiens) (UniProt P59538); assay: as §1, with “TAS2R44” for “TAS2R16”, “6.25” for “2.5”, “assay (reference value: 0.027 +/- 0.029)” for “assay”; format: functional, cell-based
T3 sequence (whole entry): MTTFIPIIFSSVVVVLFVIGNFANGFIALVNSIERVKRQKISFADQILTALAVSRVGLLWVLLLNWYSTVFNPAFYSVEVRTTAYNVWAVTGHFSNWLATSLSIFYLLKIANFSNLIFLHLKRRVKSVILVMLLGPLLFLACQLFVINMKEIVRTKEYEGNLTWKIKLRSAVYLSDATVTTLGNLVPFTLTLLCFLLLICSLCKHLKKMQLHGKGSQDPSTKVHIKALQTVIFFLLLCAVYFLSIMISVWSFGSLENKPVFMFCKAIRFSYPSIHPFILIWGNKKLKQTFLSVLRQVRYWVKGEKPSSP

Homo sapiens [12] = organism: Homo sapiens; assay: Induction of bitter sensitivity in bitter sensitive human panelists tasting solution containing 3 mM compound in presence of 13 ppm (E)-4-(2,2,3-trimethylcyclopent-3-enyl)but-2-enoic acid; format: functional, organism-based
[13] = molecular target: T3, Taste receptor type 2 member 31 (Homo sapiens); assay: as §1, with “TAS2R44” for “TAS2R16”, “0.3906” for “2.5”, “assay (reference value: 0.046 +/- 0.048)” for “assay”; format: functional, cell-based
HEK-293T = assay: Effect on calcium flux in HEK293T/Galpha16-gustducin 44 cells assessed as deltaF/F0 ratio at 100 mM in presence of (E)-4-(2,2,3-trimethylcyclopent-3-enyl)but-2-enoic acid, by Fluo-4 dye based FLIPR assay; format: functional, Homo sapiens
[14] = molecular target: T4, Taste receptor type 2 member 31 (Homo sapiens, UniProt P59538); assay: Agonist activity at full-length human TAS2R44 expressed in HEK293T/Galpha16-gustducin 44 cells assessed as effect on calcium flux by measuring deltaF/F0 ratio in presence of (E)-4-(2,2,3-trimethylcyclopent-3-enyl)but-2-enoic acid by Fluo-4 dye based FLIPR assay; format: functional, cell-based
T4 sequence (P59538 whole entry): T3 sequence (whole entry)

[15] = molecular target: T3, Taste receptor type 2 member 31 (Homo sapiens); assay: as §1, with “TAS2R44” for “TAS2R16”, “3.125” for “2.5”, “assay (reference value: 0.030 +/- 0.042)” for “assay”; format: functional, cell-based
[16] = molecular target: T5, Taste receptor type 2 member 46 (Homo sapiens) (UniProt P59540); assay: Activation of full-length human TAS2R46 expressed in HEK293T/Galpha16-gustducin 44 cells assessed as effect on calcium flux by measuring deltaF/F0 ratio by Fluo-4 dye based FLIPR assay; format: functional, cell-based
T5 sequence (whole entry): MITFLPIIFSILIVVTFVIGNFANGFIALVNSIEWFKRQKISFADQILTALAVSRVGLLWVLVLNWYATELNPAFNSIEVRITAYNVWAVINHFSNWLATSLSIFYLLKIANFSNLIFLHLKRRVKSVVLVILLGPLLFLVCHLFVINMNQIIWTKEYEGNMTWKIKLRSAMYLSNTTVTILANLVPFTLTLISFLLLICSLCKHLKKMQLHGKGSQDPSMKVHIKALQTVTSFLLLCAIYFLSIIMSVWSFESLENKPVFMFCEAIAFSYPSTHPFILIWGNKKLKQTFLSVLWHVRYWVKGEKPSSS

Homo sapiens [17] = organism: Homo sapiens; assay: Induction of bitter sensitivity in bitter sensitive human panelists tasting solution containing 3 mM compound in absence of 13 ppm (E)-4-(2,2,3-trimethylcyclopent-3-enyl)but-2-enoic acid; format: functional, organism-based
[18] = molecular target: T3, Taste receptor type 2 member 31 (Homo sapiens); assay: as §1, with “TAS2R44” for “TAS2R16”, “12.5” for “2.5”, “assay (reference value: 0.051 +/- 0.004)” for “assay”; format: functional, cell-based
[19] = molecular target: T3, Taste receptor type 2 member 31 (Homo sapiens); assay: Agonist activity at full-length human TAS2R44 expressed in HEK293T/Galpha16-gustducin 44 cells assessed as effect on calcium flux by measuring deltaF/F0 ratio in presence of 4-(2,2,3-trimethylcyclo-pentyl)butanamide) by Fluo-4 dye based FLIPR assay; format: functional, cell-based
[20] = molecular target: T3, Taste receptor type 2 member 31 (Homo sapiens); assay: as §1, with “TAS2R44” for “TAS2R16”, “0.7813” for “2.5”, “assay (reference value: 0.038 +/- 0.042)” for “assay”; format: functional, cell-based
[21] = molecular target: T6, Taste receptor type 2 member 10 (Homo sapiens) (UniProt Q9NYW0); assay: Activation of full-length human TAS2R10 expressed in HEK293T/Galpha16-gustducin 44 cells assessed as effect on calcium flux by measuring deltaF/F0 ratio by Fluo-4 dye based FLIPR assay; format: functional, cell-based
T6 sequence (whole entry): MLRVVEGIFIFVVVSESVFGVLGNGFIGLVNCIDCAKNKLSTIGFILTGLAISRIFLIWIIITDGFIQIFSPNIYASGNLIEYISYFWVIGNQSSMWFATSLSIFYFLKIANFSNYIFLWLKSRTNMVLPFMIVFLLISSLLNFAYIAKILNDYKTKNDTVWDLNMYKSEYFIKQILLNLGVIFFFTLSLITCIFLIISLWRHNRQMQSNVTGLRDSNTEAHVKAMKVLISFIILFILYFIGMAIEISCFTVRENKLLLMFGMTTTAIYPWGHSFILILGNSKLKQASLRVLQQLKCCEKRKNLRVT

[22] = molecular target: T3, Taste receptor type 2 member 31 (Homo sapiens); assay: Activation of full-length human TAS2R44 expressed in HEK293T/Galpha16-gustducin 44 cells assessed as effect on calcium flux by measuring deltaF/F0 ratio at 50 mM in presence of (E)-4-(2,2,3-trimethylcyclopent-3-enyl)but-2-enoic acid by Fluo-4 dye based FLIPR assay (reference value: 0.192 +/- 0.011); format: functional, cell-based
[23] = molecular target: T3, Taste receptor type 2 member 31 (Homo sapiens); assay: Activation of full-length human TAS2R44 expressed in HEK293T/Galpha16-gustducin 44 cells assessed as effect on calcium flux by measuring deltaF/F0 ratio at 25 mM in presence of (E)-4-(2,2,3-trimethylcyclopent-3-enyl)but-2-enoic acid by Fluo-4 dye based FLIPR assay (reference value: 0.110 +/- 0.019); format: functional, cell-based

OC[C@H]1O[C@@H](Oc2ccccc2)[C@H](O)[C@@H](O)[C@@H]1O
Ratio [1]: 2.48 | Ratio [2]: 2.65 | Ratio [3]: 0.108 | Ratio [4]: 2.14 | Ratio [5]: 2.83 | Ratio [6]: 1.55 | Activity [7]: Active | Ratio [8]: 0.702 | Ratio [9]: -0.013

OC[C@H]1O[C@H](O[C@]2(CCl)O[C@H](CCl)[C@@H](O)[C@@H]2O)[C@H](O)[C@@H](O)[C@H]1Cl [SUCRALOSE]
Activity [10]: Dose-dependent effect | Ratio [11]: 0 | Activity (Homo sapiens [12]): inactive | Ratio [13]: 0.011 | Ratio (HEK-293T): -0.175 | EC50 [14]: Not Active | Ratio [15]: 0.005 | Activity [16]: Dose-dependent effect | Activity (Homo sapiens [17]): Active | Ratio [18]: -0.015 | Activity [19]: Active | Ratio [20]: 0.01 | Activity [21]: Dose-dependent effect | Ratio [22]: -0.025 | Ratio [23]: -0.035
